Assay results reported in BigSolDB 2.1.

CCC[C@H](N)C(=O)O
solubility (mole fraction)
Conditions | 298.15 K | 303.15 K | 308.15 K | 313.15 K | 318.15 K | 323.15 K
in acetone | 0.000515 | 0.000664 | 0.000828 | 0.00106 | 0.00135 | 0.00161
in acetonitrile | 5.93e-05 | 6.88e-05 | 7.54e-05 | 8.02e-05 | 8.53e-05 | 9.69e-05
in ethanol | 0.000171 | 0.000186 | 0.000201 | 0.000227 | 0.000244 | 0.000283
in ethyl acetate | 0.000253 | 0.000301 | 0.000349 | 0.000449 | 0.0005 | 0.00056
in isopentanol | 0.000726 | 0.000875 | 0.00103 | 0.00122 | 0.00151 | 0.00183
in isopropanol | 0.00119 | 0.0015 | 0.00173 | 0.00192 | 0.00215 | 0.00249
in methanol | 0.00104 | 0.00109 | 0.00113 | 0.0012 | 0.00126 | 0.00129
in methyl acetate | 7.37e-05 | 9.03e-05 | 0.00012 | 0.00015 | 0.000176 | 0.000216
in n-butanol | 0.000962 | 0.00122 | 0.0014 | 0.00157 | 0.00175 | 0.0019
in n-pentanol | 0.000508 | 0.000567 | 0.000639 | 0.000744 | 0.000818 | 0.000872
in n-propanol | 0.000859 | 0.00115 | 0.0015 | 0.00189 | 0.00231 | 0.00278
in water | 0.0135 | 0.0136 | 0.0137 | 0.0138 | 0.0139 | 0.0141
